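Where inhibition never reached the appropriate level, the endpoint shown equals the highest concentration tested. Otherwise, values were interpolated linearly from a five-concentration, 48-hour dose response in 96-well plates. TGI: total growth inhibition.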
Tests used:
Assay in all cases: DTP human tumour cell line panel, 48 h
UACC-62 melanoma = system: UACC-62 melanoma
786-0 renal = system: 786-0 renal
DMS 114 small cell lung = system: DMS 114 small cell lung
HL-60(TB) leukemia = system: HL-60(TB) leukemia
SNB-78 CNS = system: SNB-78 CNS
HOP-18 NSCLC = system: HOP-18 NSCLC
M19-MEL melanoma = system: M19-MEL melanoma
IGROV1 ovarian = system: IGROV1 ovarian
K-562 leukemia = system: K-562 leukemia
A549 NSCLC = system: A549 NSCLC
SNB-75 CNS = system: SNB-75 CNS
HCT-15 colon = system: HCT-15 colon
NCI-H522 lung = system: NCI-H522 lung
OVCAR-8 ovarian = system: OVCAR-8 ovarian
SN12C renal = system: SN12C renal
SW-620 colon = system: SW-620 colon
CAKI-1 renal = system: CAKI-1 renal
SF-295 CNS = system: SF-295 CNS
DLD-1 colon = system: DLD-1 colon
HOP-92 NSCLC = system: HOP-92 NSCLC
LXFL 529 NSCLC = system: LXFL 529 NSCLC
KM20L2 colon = system: KM20L2 colon
EKVX NSCLC = system: EKVX NSCLC
HOP-62 NSCLC = system: HOP-62 NSCLC
NCI-H460 lung = system: NCI-H460 lung
M14 melanoma = system: M14 melanoma
U251 CNS = system: U251 CNS
HCT-116 colon = system: HCT-116 colon
SK-OV-3 ovarian = system: SK-OV-3 ovarian
SK-MEL-2 melanoma = system: SK-MEL-2 melanoma
RXF-631 renal = system: RXF-631 renal
KM12 colon = system: KM12 colon
UO-31 renal = system: UO-31 renal
COLO 205 colon = system: COLO 205 colon
SK-MEL-5 melanoma = system: SK-MEL-5 melanoma
OVCAR-4 ovarian = system: OVCAR-4 ovarian
SR leukemia = system: SR leukemia
OVCAR-5 ovarian = system: OVCAR-5 ovarian
HCC-2998 colon = system: HCC-2998 colon
TK-10 renal = system: TK-10 renal
MOLT-4 leukemia = system: MOLT-4 leukemia
ACHN renal = system: ACHN renal
SF-268 CNS = system: SF-268 CNS
DMS 273 small cell lung = system: DMS 273 small cell lung
SK-MEL-28 melanoma = system: SK-MEL-28 melanoma
SNB-19 CNS = system: SNB-19 CNS
CCRF-CEM leukemia = system: CCRF-CEM leukemia
UACC-257 melanoma = system: UACC-257 melanoma
OVCAR-3 ovarian = system: OVCAR-3 ovarian
MALME-3M melanoma = system: MALME-3M melanoma
NCI-H226 lung = system: NCI-H226 lung
NCI-H23 lung = system: NCI-H23 lung
HT29 colon = system: HT29 colon
SF-539 CNS = system: SF-539 CNS
LOX IMVI melanoma = system: LOX IMVI melanoma
BT-549 breast = system: BT-549 breast
XF 498 CNS = system: XF 498 CNS
RPMI-8226 leukemia = system: RPMI-8226 leukemia
A498 renal = system: A498 renal
HS 578T breast = system: HS 578T breast
DU-145 prostate = system: DU-145 prostate
RXF 393 renal = system: RXF 393 renal
MDA-MB-435 = system: MDA-MB-435
T-47D breast = system: T-47D breast

## C=CCc1cc(OC)c2c(c1)C(O)CC(c1ccccc1)O2 (stereo unspecified)
UACC-62 melanoma
  TGI: > 100 µM
786-0 renal
  TGI: > 100 µM
DMS 114 small cell lung
  TGI: > 100 µM
HL-60(TB) leukemia
  TGI: > 100 µM
SNB-78 CNS
  TGI: > 100 µM
HOP-18 NSCLC
  TGI: > 100 µM
M19-MEL melanoma
  TGI: > 100 µM
IGROV1 ovarian
  TGI: > 100 µM
K-562 leukemia
  TGI: > 100 µM
A549 NSCLC
  TGI: > 100 µM
SNB-75 CNS
  TGI: > 100 µM
HCT-15 colon
  TGI: > 100 µM
NCI-H522 lung
  TGI: > 100 µM
OVCAR-8 ovarian
  TGI: > 100 µM
SN12C renal
  TGI: > 100 µM
SW-620 colon
  TGI: > 100 µM
CAKI-1 renal
  TGI: > 100 µM
SF-295 CNS
  TGI: > 100 µM
DLD-1 colon
  TGI: > 100 µM
HOP-92 NSCLC
  TGI: > 100 µM
LXFL 529 NSCLC
  TGI: > 100 µM
KM20L2 colon
  TGI: > 100 µM
EKVX NSCLC
  TGI: > 100 µM
HOP-62 NSCLC
  TGI: > 100 µM
NCI-H460 lung
  TGI: > 100 µM
M14 melanoma
  TGI: > 100 µM
U251 CNS
  TGI: > 100 µM
HCT-116 colon
  TGI: > 100 µM
SK-OV-3 ovarian
  TGI: > 100 µM
SK-MEL-2 melanoma
  TGI: > 100 µM
RXF-631 renal
  TGI: > 100 µM
KM12 colon
  TGI: > 100 µM
UO-31 renal
  TGI: > 100 µM
COLO 205 colon
  TGI: > 100 µM
SK-MEL-5 melanoma
  TGI: > 100 µM
OVCAR-4 ovarian
  TGI: > 100 µM
SR leukemia
  TGI: > 100 µM
OVCAR-5 ovarian
  TGI: > 100 µM
HCC-2998 colon
  TGI: > 100 µM
TK-10 renal
  TGI: > 100 µM
MOLT-4 leukemia
  TGI: > 100 µM
ACHN renal
  TGI: > 100 µM
SF-268 CNS
  TGI: > 100 µM
DMS 273 small cell lung
  TGI: > 100 µM
SK-MEL-28 melanoma
  TGI: > 100 µM
SNB-19 CNS
  TGI: > 100 µM
CCRF-CEM leukemia
  TGI: > 100 µM
UACC-257 melanoma
  TGI: > 100 µM
OVCAR-3 ovarian
  TGI: > 100 µM
MALME-3M melanoma
  TGI: > 100 µM
NCI-H226 lung
  TGI: > 100 µM
NCI-H23 lung
  TGI: > 100 µM
HT29 colon
  TGI: > 100 µM
SF-539 CNS
  TGI: > 100 µM

## C=C1CC2OC2(C(=O)O[C@H]2CCC3[C@@H]4CCC5=CC(=O)CC[C@]5(C)C4CC[C@@]32C)C1=O (stereo partly specified)
LOX IMVI melanoma
  TGI: 21.1 µM
UACC-62 melanoma
  TGI: 28.7 µM
BT-549 breast
  TGI: 41.9 µM
786-0 renal
  TGI: 4.83 µM
DMS 114 small cell lung
  TGI: 10.4 µM
HL-60(TB) leukemia
  TGI: 3.93 µM
SNB-78 CNS
  TGI: 19.5 µM
HOP-18 NSCLC
  TGI: 12.7 µM
XF 498 CNS
  TGI: 9.92 µM
M19-MEL melanoma
  TGI: 31.7 µM
IGROV1 ovarian
  TGI: 25.6 µM
K-562 leukemia
  TGI: 7.03 µM
RPMI-8226 leukemia
  TGI: 5.79 µM
A498 renal
  TGI: 30.6 µM
A549 NSCLC
  TGI: 43 µM
SNB-75 CNS
  TGI: 33.9 µM
HCT-15 colon
  TGI: 23.1 µM
NCI-H522 lung
  TGI: 8 µM
OVCAR-8 ovarian
  TGI: 45.1 µM
SN12C renal
  TGI: 13.9 µM
SW-620 colon
  TGI: 11.8 µM
CAKI-1 renal
  TGI: 25 µM
SF-295 CNS
  TGI: 42.8 µM
DLD-1 colon
  TGI: 16.5 µM
HOP-92 NSCLC
  TGI: 23.5 µM
LXFL 529 NSCLC
  TGI: 6.08 µM
KM20L2 colon
  TGI: 16.2 µM
HS 578T breast
  TGI: 45.1 µM
EKVX NSCLC
  TGI: 48 µM
HOP-62 NSCLC
  TGI: 44.4 µM
NCI-H460 lung
  TGI: 28.9 µM
M14 melanoma
  TGI: 16.6 µM
U251 CNS
  TGI: 21.2 µM
HCT-116 colon
  TGI: 13.8 µM
DU-145 prostate
  TGI: 32.9 µM
SK-OV-3 ovarian
  TGI: 38.8 µM
SK-MEL-2 melanoma
  TGI: 15.1 µM
KM12 colon
  TGI: 32 µM
UO-31 renal
  TGI: 15.4 µM
RXF 393 renal
  TGI: 10.9 µM
COLO 205 colon
  TGI: 15.5 µM
SK-MEL-5 melanoma
  TGI: 27.6 µM
OVCAR-4 ovarian
  TGI: 18.4 µM
SR leukemia
  TGI: 7.65 µM
OVCAR-5 ovarian
  TGI: 38.4 µM
HCC-2998 colon
  TGI: 74.5 µM
TK-10 renal
  TGI: 15.1 µM
MOLT-4 leukemia
  TGI: 5.96 µM
ACHN renal
  TGI: 16.2 µM
SF-268 CNS
  TGI: 18.2 µM
DMS 273 small cell lung
  TGI: 9.15 µM
MDA-MB-435
  TGI: 48.7 µM
SK-MEL-28 melanoma
  TGI: 17.8 µM
SNB-19 CNS
  TGI: 36.3 µM
CCRF-CEM leukemia
  TGI: 12.7 µM
UACC-257 melanoma
  TGI: 18.3 µM
OVCAR-3 ovarian
  TGI: 21.8 µM
MALME-3M melanoma
  TGI: 16.5 µM
NCI-H226 lung
  TGI: 55.5 µM
NCI-H23 lung
  TGI: 27.3 µM
HT29 colon
  TGI: 24.3 µM
SF-539 CNS
  TGI: 18.1 µM
T-47D breast
  TGI: 14.2 µM

## CCOC(=O)C1Oc2ccc([N+](=O)[O-])c3c2C1(O)CCC3 (stereo unspecified)
LOX IMVI melanoma
  TGI: > 100 µM
UACC-62 melanoma
  TGI: > 100 µM
786-0 renal
  TGI: > 100 µM
DMS 114 small cell lung
  TGI: > 100 µM
HL-60(TB) leukemia
  TGI: > 100 µM
SNB-78 CNS
  TGI: > 100 µM
M19-MEL melanoma
  TGI: > 100 µM
IGROV1 ovarian
  TGI: > 100 µM
K-562 leukemia
  TGI: > 100 µM
RPMI-8226 leukemia
  TGI: > 100 µM
A498 renal
  TGI: > 100 µM
A549 NSCLC
  TGI: > 100 µM
SNB-75 CNS
  TGI: > 100 µM
HCT-15 colon
  TGI: > 100 µM
NCI-H522 lung
  TGI: > 100 µM
OVCAR-8 ovarian
  TGI: > 100 µM
SN12C renal
  TGI: > 100 µM
SW-620 colon
  TGI: > 100 µM
SF-295 CNS
  TGI: > 100 µM
DLD-1 colon
  TGI: > 100 µM
HOP-92 NSCLC
  TGI: > 100 µM
LXFL 529 NSCLC
  TGI: > 100 µM
EKVX NSCLC
  TGI: > 100 µM
HOP-62 NSCLC
  TGI: > 100 µM
NCI-H460 lung
  TGI: > 100 µM
M14 melanoma
  TGI: > 100 µM
U251 CNS
  TGI: > 100 µM
SK-OV-3 ovarian
  TGI: > 100 µM
SK-MEL-2 melanoma
  TGI: > 100 µM
RXF-631 renal
  TGI: > 100 µM
KM12 colon
  TGI: > 100 µM
UO-31 renal
  TGI: > 100 µM
RXF 393 renal
  TGI: > 100 µM
COLO 205 colon
  TGI: > 100 µM
SK-MEL-5 melanoma
  TGI: > 100 µM
OVCAR-4 ovarian
  TGI: > 100 µM
SR leukemia
  TGI: > 100 µM
OVCAR-5 ovarian
  TGI: > 100 µM
HCC-2998 colon
  TGI: > 100 µM
TK-10 renal
  TGI: > 100 µM
MOLT-4 leukemia
  TGI: > 100 µM
ACHN renal
  TGI: > 100 µM
SF-268 CNS
  TGI: > 100 µM
DMS 273 small cell lung
  TGI: > 100 µM
SK-MEL-28 melanoma
  TGI: > 100 µM
SNB-19 CNS
  TGI: > 100 µM
CCRF-CEM leukemia
  TGI: > 100 µM
UACC-257 melanoma
  TGI: > 100 µM
OVCAR-3 ovarian
  TGI: > 100 µM
MALME-3M melanoma
  TGI: > 100 µM
NCI-H226 lung
  TGI: > 100 µM
NCI-H23 lung
  TGI: > 100 µM
HT29 colon
  TGI: > 100 µM
SF-539 CNS
  TGI: > 100 µM

Source: PubChem BioAssay (NCI)
